Results from patent publication US11578055B2, “Triazacyclododecansulfonamide (“TCD”)-based protein secretion inhibitors” (KEZAR LIFE SCIENCES, priority 2018, dated 2023).
pEC50, pIC50: −log10 of the molar value. Structures can show the parent of a compound that is named as a salt. Where two headings read alike, the source gives them in different places.

Columns and labels:
[1] = test system: full length TNFα (amino acids 1-233) fused to Gaussia Luciferase; assay: Dox Induced TNFα-FL-Gluc Assay; assay type: cell-based; conditions: 24 hr, read-out: 24 hr Dox Inducible TNFaFLGluc 293FRT/TO: Mean IC50
Method in brief: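 Compounds diluted in DMSO/medium with doxycycline were incubated at 37° C, 5% CO2 with 293 T-REx cells stably carrying a Tet-regulated TNFα(1-233)-Gaussia luciferase construct. Data for structures drawn without stereochemistry refer to stereoisomer mixtures.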

[2] = test system: multiple myeloma cell line U266B1; assay: U266 Cell Viability Assay; assay type: cell-based, human; conditions: Homo sapiens, U-266, 48 hr
Method in brief: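 Viability was measured by CellTiter-Glo luminescence after 48 h compound exposure at 37° C, 5% CO2. The cells were U266B1 multiple myeloma cells grown in RPMI 1640 plus 10% FBS. Where stereochemistry is not shown, values apply to the stereoisomer mixture.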

[3] = test system: multiple myeloma cell line NCl-H929; assay: H929 Cell Viability Assay; assay type: cell-based, human; conditions: Homo sapiens, NCI-H929, 48 h
Method in brief: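 Viability was determined by CellTiter-Glo luminescence after a 48 h, 37 °C exposure of NCI-H929 cells to serial compound dilutions in medium containing 10% FBS. Where stereochemistry is not shown, values refer to a mix of stereoisomers.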

[4] = In Vitro Microsome Stability Assay (mouse); assay type: in vitro ADME
Method in brief: (§1)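 Test article, added from a 0.25 mM DMSO stock, was incubated with liver microsomes (20 mg/mL stock) in 0.1 M potassium phosphate at 37° C, with the reaction started by NADPH. Samples were quenched with acetonitrile containing internal standard at 0 and 30 min and analysed by LC-MS/MS. Values are % remaining at 30 min versus 0 min, using IS-normalised AUC ratios.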

[5] = In Vitro Microsome Stability Assay (rat); assay type: in vitro ADME
Method in brief: as §1

[6] = test system: PD1 signal sequence plus 10 amino acids fused to Gaussia Luciferase (PD1-ss+10aa/Gaussia Luciferase); assay: Dox Induced PD1-ss-Gluc Assay; assay type: cell-based; conditions: 24 hr, read-out: 24 hr Dox Inducible PD1ssGluc 293FRT/TO: Mean IC50
Method in brief: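 Compound dilutions in DMSO/media containing doxycycline were applied to a stable, inducible 293 T-REx line carrying the luciferase fusion, then incubated at 37 °C, 5% CO2. Where stereochemistry is not drawn, values relate to isomer mixtures.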

[7] = In Vitro Microsome Stability Assay (human); assay type: in vitro ADME
Method in brief: as §1

[8] = In Vitro Microsome Stability Assay (monkey); assay type: in vitro ADME
Method in brief: as §1

[9] = U266, read-out: 48 hr U266 Viability Celltiter-Glo: Mean EC50
[10] = H929, read-out: 48 hr H929 Viability Celltiter-Glo: Mean EC50

Row | SMILES | pIC50 ([1]; Dox inducible, 293FRT/TO cells) | pEC50 ([2]; U266, Celltiter-Glo) | pEC50 ([3]; H929, Celltiter-Glo) | Liver Microsome Stability-% Left after 30 min w/ NADPH (%) Mouse ([4]; mouse liver microsomes, 30 min w/ NADPH) | Liver Microsome Stability-% Left after 30 min w/ NADPH (%) Rat ([5]; rat liver microsomes, 30 min w/ NADPH) | pIC50 ([6]; Dox inducible, 293FRT/TO cells) | Liver Microsome Stability-% Left after 30 min w/ NADPH (%) Human ([7]; human liver microsomes, 30 min w/ NADPH) | Liver Microsome Stability-% Left after 30 min w/ NADPH (%) Monkey ([8]; monkey liver microsomes, 30 min w/ NADPH) | pIC50 ([1]; 293FRT/TO) | pEC50 [2, 9] | pEC50 [3, 10] | Liver Microsome Stability-% Left after 30 min w/ NADPH (%) Mouse ([4]; mouse, 30 min, NADPH) | Liver Microsome Stability-% Left after 30 min w/ NADPH (%) Rat ([5]; rat, 30 min, NADPH) | pIC50 ([6]; 293FRT/TO) | Liver Microsome Stability-% Left after 30 min w/ NADPH (%) Human ([7]; human, 30 min, NADPH) | Liver Microsome Stability-% Left after 30 min w/ NADPH (%) Monkey ([8]; monkey, 30 min, NADPH)
1 | C=C1CN(S(=O)(=O)c2ccc(N(C)C)cc2)C(C)CCN(CC2CCCCC2)CCCN(S(=O)(=O)N2CCC(c3ccccc3)CC2)C1 (centres unmarked) [B19, 4-{[5-(cyclohexylmethyl)-2-methyl-11-methylidene-9-[(4-phenylpiperidin-1-yl)sulfonyl]-1,5,9-triazacyclododecan-1-yl]sulfonyl}-N,N-dimethylaniline] | 4.81 | < 4.60 | < 4.60 | 13.5% | 15.7% | 6.66 | 9.46% | 0.98% | – | – | – | – | – | – | – | –
2 | COc1cccc(S(=O)(=O)N2CCCN(CC3CCCCC3)CCCN(S(=O)(=O)N3CCCCC3)CC3(CC3)C2)c1 [A32, 9-(cyclohexylmethyl)-5-(3-methoxybenzenesulfonyl)-13-(piperidine-1-sulfonyl)-5,9,13-triazaspiro[2.11]tetradecane] | – | – | – | – | – | – | – | – | < 4.60 | < 4.60 | < 4.60 | 0.51% | 0.27% | < 4.60 | 0.06% | 0.09%
3 | C=C1CN(S(=O)(=O)c2ccc(N(C)C)cc2)CCCN(CC2CCCCC2)CCCN(S(=O)(=O)N2CCc3cc(F)ccc3C2)C1 [A59, 4-{[9-(cyclohexylmethyl)-5-[(6-fluoro-1,2,3,4-tetrahydroisoquinolin-2-yl)sulfonyl]-3-methylidene-1,5,9-triazacyclododecan-1-yl]sulfonyl}-N,N-dimethylaniline] | – | – | – | – | – | – | – | – | 6.21 | < 4.60 | 5.84 | 3.73% | 3.9% | 7.62 | 1.89% | 1.94%
4 | C=C1CN(S(=O)(=O)c2ccc(N(C)C)cc2)CCCN(CC2CCCCC2)CCCN(S(=O)(=O)N2CCN(c3ccccc3Cl)CC2)C1 [A83, 4-[(5-{[4-(2-chlorophenyl)piperazin-1-yl]sulfonyl}-9-(cyclohexylmethyl)-3-methylidene-1,5,9-triazacyclododecan-1-yl)sulfonyl]-N,N-dimethylaniline] | – | – | – | – | – | – | – | – | 6.02 | < 4.60 | 6.02 | 23.4% | 47.6% | 7.55 | 39.3% | 34.9%
5 | CN(C)c1ccc(S(=O)(=O)N2CCCN(CC3CCCCC3)CCCN(S(=O)(=O)N3CCC(C)(C)CC3)CC3(CC3)C2)cc1 [A26, 4-{[9-(cyclohexylmethyl)-13-[(4,4-dimethylpiperidin-1-yl)sulfonyl]-5,9,13-thazaspiro[2.11]tetradecan-5-yl]sulfonyl}-N,N-dimethylaniline] | – | – | – | – | – | – | – | – | < 4.60 | < 4.60 | 4.79 | 3.4% | 1.84% | 6.65 | 6.65% | 0.13%
6 | C=C1CN(S(=O)(=O)c2ccc(N(C)C)cc2)CCCN(CC2CCCCC2)CCCN(S(=O)(=O)N2CCC(C3CCCC3)CC2)C1 [A64, 4-{[9-(cyclohexylmethyl)-5-[(4-cyclopentylpiperidin-1-yl)sulfonyl]-3-methylidene-1,5,9-triazacyclododecan-1-yl]sulfonyl}-N,N-dimethylaniline] | – | – | – | – | – | – | – | – | 5.48 | < 4.60 | 5.19 | 53.1% | 63.1% | 7.13 | 53.3% | 48%
7 | C=C1CN(S(=O)(=O)c2ccc(N(C)C)cc2)CCCN(CC2CCCCC2)CCCN(S(=O)(=O)N2CCc3cc(C#N)ccc3C2)C1 [A70, 2-{[9-(cyclohexylmethyl)-5-[4-(dimethylamino)benzenesulfonyl]-3-methylidene-1,5,9-triazacyclododecan-1-yl]sulfonyl}-1,2,3,4-tetrahydroisoquinoline-6-carbonitrile] | – | – | – | – | – | – | – | – | 5.89 | < 4.60 | 5.52 | 3.14% | 6.75% | 7.34 | 1.36% | 3.26%
8 | COC1CCN(S(=O)(=O)N2CCCN(CC3CCCCC3)CCCN(S(=O)(=O)c3ccc(N(C)C)cc3)CC3(CC3)C2)CC1 [A27, 4-{[9-(cyclohexylmethyl)-13-[(4-methoxypiperidin-1-yl)sulfonyl]-5,9,13-triazaspiro[2.11]tetradecan-5-yl]sulfonyl}-N,N-dimethylaniline] | – | – | – | – | – | – | – | – | < 4.60 | < 4.60 | < 4.60 | 2.15% | 0.98% | 6.31 | 2.52% | 2.07%
9 | O=S(=O)(N1CCCCC1)N1CCCN(Cc2ccccc2)CCCN(S(=O)(=O)N2CCCCC2)CC2(CC2)C1 [A18, 9-benzyl-5,13-bis(piperidin-1-ylsulfonyl)-5,9,13-triazaspiro[2.11]tetradecane hydrochloride] | – | – | – | – | – | – | – | – | < 4.60 | 4.81 | < 4.60 | 0.05% | 0.11% | < 4.60 | 0.04% | 0.05%
10 | C=C1CN(S(=O)(=O)c2ccc(N(C)C)cc2)CCCN(CC2CCCCC2)CCCN(S(=O)(=O)N2CCCC(c3ccccc3)C2)C1 (centres unmarked) [A38, 4-{[9-(cyclohexylmethyl)-3-methylidene-5-[(3-phenylpiperidin-1-yl)sulfonyl]-1,5,9-triazacyclododecan-1-yl]sulfonyl}-N,N-dimethylaniline] | – | – | – | – | – | – | – | – | 5.26 | < 4.60 | < 4.93 | 12.6% | 24.2% | 7.12 | 11.4% | 9.04%
